The record followed here is ChEMBL document CHEMBL1201862, “PubChem BioAssay data set” (2004).

Active and inactive are the calls of the source. For most assays here, no stated cut-off is given here; in the data, actives have a measured EC50 and inactives only a lower limit.

As usually defined, the EC50 is the concentration at which the effect is half-maximal. As usually defined, the IC50 is the concentration that inhibits the measured activity by half.

For one assay, the target named is T1, Streptokinase A (Streptococcus pyogenes serotype M1, UniProt P10520).
T1 sequence (P10520 whole entry): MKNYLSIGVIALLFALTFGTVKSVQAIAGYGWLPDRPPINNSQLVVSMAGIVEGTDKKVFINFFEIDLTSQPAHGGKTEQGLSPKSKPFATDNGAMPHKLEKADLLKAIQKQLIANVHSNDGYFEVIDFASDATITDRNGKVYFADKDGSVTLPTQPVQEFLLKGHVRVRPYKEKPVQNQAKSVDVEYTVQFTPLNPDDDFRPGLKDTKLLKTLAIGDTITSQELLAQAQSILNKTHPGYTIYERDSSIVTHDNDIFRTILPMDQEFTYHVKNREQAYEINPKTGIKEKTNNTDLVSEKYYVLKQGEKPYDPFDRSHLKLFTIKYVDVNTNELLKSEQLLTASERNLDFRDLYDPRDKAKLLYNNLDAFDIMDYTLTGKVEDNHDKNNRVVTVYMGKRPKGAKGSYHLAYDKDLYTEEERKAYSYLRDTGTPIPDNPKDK
Put plainly: S. pyogenes streptokinase expression inhibitors, potency, dose response, plasminogen activation absorbance, OD405 (AID 1914).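 Further: secreted streptokinase activity via plasminogen activation per viability signal from cell pellet.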 Type of assay: functional, Streptococcus pyogenes M1 GAS.

For assay [1], the target named is T2, High affinity choline transporter 1 (Homo sapiens, UniProt Q9GZV3).
T2 sequence (Q9GZV3 whole entry): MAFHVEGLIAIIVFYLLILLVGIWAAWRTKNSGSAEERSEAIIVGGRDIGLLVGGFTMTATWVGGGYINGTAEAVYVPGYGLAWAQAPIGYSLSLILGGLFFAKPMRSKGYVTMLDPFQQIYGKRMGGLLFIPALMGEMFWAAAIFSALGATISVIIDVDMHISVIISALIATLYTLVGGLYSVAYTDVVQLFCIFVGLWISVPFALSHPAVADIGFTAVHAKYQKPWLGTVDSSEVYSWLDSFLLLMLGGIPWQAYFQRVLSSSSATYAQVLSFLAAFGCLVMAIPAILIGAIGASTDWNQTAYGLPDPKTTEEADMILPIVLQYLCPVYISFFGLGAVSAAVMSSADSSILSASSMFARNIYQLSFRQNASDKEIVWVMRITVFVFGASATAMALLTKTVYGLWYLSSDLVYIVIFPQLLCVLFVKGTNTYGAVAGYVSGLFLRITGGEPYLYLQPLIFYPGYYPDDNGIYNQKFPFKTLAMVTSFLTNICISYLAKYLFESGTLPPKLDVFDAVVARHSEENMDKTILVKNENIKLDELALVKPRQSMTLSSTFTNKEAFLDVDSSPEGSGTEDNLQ
Nature of the assay: CHT inhibitors, dose response, cell-based, 5-point CRC, membrane potential dye (AID 504840). Type of assay: functional.

A further assay deals with Large T antigen (Simian virus 40, UniProt P03070). Format: functional, Betapolyomavirus macacae.
The target in a further assay is Beta-galactosidase (Escherichia coli, UniProt Q8VNN2). Nature of the assay: PubChem AID 485352. Format: functional.
The subject of assay [2] is BJ. Put plainly: cytotoxicity toward BJ-TERT-LT-ST fibroblasts, dose response, cell-based, RAS-independent, luminescence (AID 1935).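 Further: BJ fibroblasts immortalized with TERT plus LT and ST oncogenes.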 Type of assay: functional. To be noted: Homo sapiens.
The test system of a further assay is Streptococcus. Nature of the assay: Group A Streptococcus viability loss, dose response, counter-screen for streptokinase expression inhibitor project, luminescence, BacTiterGlo (AID 1915).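 Further: potency for reduction of bacterial viability or growth.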 Format: functional, organism-based. (The purpose of a counterscreen is to sort out artefacts and off-target activity.)
Assay [3] in a line: inhibitors of intracellular T. cruzi replication, confirmation, NIH3T3 host cells, beta-gal luminescence (AID 2044).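 Further: intracellular parasites grown in NIH/3T3 mouse fibroblasts as host cells; luminescent beta-galactosidase reporter signal from transgenic T. cruzi replicating inside host cells; inhibitors lower the luminescence signal.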 Type of assay: functional, cell-based.
The nature of assay [4]: cytotoxicity toward NIH3T3 fibroblasts, dose response, counter-screen, cell-based, ATP luminescence, mouse fibroblasts (AID 2010).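 Further: cells exposed to compound for about 90 hours before reading.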 Type of assay: functional.
Assay [5] can be described thus: cytotoxicity toward DRD oncogenic fibroblasts, dose response, cell-based, non-viral oncogenic, luminescence (AID 1934). Format: functional. The settings on record: Homo sapiens.
The subject of assay [6] is BJ. Put plainly: cells. Type of assay: functional, cell-based. The settings on record: Homo sapiens.
Assay [7] has as its target T2, High affinity choline transporter 1. Nature of the assay: CHT inhibitors, dose response, cell-based, 10-point CRC, membrane potential dye (AID 588401).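 Further: membrane potential dye fluorescence of choline-evoked depolarization via CHT.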 Type of assay: functional.
The subject of assay [8] is BJ. Nature of the assay: cytotoxicity toward BJ-TERT fibroblasts, dose response, cell-based, RAS-independent, luminescence (AID 1933). Type of assay: functional. The settings on record: Homo sapiens.
Assay [9] in a line: Fluorescence-based cell-based high throughput dose response assay for inhibitors of the interaction of nucleotide-binding oligomerization domain containing 2 (NOD2) and the receptor-interacting serine-threonine kinase 2 (RIPK2). Type of assay: functional. To be noted: Homo sapiens.
For the next assay, the target named is Beta Lactamase (Pseudomonas aeruginosa, UniProt Q932Y6). Put plainly: beta-lactamase reporter inhibitor potency, dose response, artefact control for TLR9-MyD88 binding inhibitor project, BLA reporter cells, FRET fluorescence (AID 588341).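 Further: cell based assay in CHO-K1 cells stably expressing beta-lactamase.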 Format: cell-based.
The test system of assay [10] is Streptococcus sp. 'group A'. Put plainly: growth inhibition of control SK(-) GAS strain, dose response, counter-screen for streptokinase expression inhibitor project, luminescence, kanamycin, BacTiterGlo, confirmation (AID 1900). Type of assay: functional, organism-based.
The target of assay [11] is T3, Type-1 angiotensin II receptor (Homo sapiens, UniProt P30556).
T3 sequence (P30556 whole entry): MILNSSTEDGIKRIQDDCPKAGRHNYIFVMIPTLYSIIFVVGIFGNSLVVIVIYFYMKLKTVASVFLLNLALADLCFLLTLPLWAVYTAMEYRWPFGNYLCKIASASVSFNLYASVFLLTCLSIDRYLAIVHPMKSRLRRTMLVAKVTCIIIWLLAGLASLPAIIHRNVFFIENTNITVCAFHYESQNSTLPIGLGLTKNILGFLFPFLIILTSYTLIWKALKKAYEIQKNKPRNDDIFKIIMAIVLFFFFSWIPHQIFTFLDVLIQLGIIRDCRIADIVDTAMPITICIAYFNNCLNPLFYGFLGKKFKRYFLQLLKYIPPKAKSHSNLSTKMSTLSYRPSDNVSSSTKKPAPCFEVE
Put plainly: AT1 receptor antagonists, dose response, selectivity assay for APJ receptor antagonist project, cell-based, uHTS hits (AID 463214).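 Further: antagonist potency against angiotensin II stimulated AT1 response.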 Type of assay: functional.

The next assay deals with CHO. Put plainly: cytotoxicity in TLR9-MyD88 CHO cells, dose response, cytotoxicity control for TLR9-MyD88 binding inhibitor project, cell-based, luminescence (AID 588339).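 Further: CHO cells stably coexpressing TLR9 and MyD88 fusions from primary screen; compound exposure lasted 48 hours before viability readout.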 Type of assay: functional, hamster. The settings on record: Cricetulus griseus.
For assay [12], the target named is T4, Heat shock factor protein 1 (Mus musculus, UniProt P38532).
T4 sequence (P38532 whole entry): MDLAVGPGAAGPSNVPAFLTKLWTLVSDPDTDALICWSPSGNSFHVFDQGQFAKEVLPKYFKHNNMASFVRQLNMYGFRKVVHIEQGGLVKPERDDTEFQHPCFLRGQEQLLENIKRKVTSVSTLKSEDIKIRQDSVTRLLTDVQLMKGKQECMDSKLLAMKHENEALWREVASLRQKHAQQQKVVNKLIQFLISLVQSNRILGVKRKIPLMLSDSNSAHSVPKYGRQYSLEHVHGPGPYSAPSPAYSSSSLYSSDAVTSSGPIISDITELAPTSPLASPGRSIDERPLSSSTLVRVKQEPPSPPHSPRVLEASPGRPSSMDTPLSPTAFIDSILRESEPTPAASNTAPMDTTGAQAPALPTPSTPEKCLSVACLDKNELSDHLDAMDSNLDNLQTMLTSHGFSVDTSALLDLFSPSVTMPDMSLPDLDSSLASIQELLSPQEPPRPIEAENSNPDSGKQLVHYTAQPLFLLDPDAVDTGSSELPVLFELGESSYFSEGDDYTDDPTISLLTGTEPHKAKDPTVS
Nature of the assay: HSF1 potentiators in luciferase reporter cells, confirmation, cell-based, NIH3T3, luminescence, dose retest (AID 435004).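 Further: stress induced by proteasome inhibitor MG132 added 30 min after compound; luciferase reporter driven by HSF1 response element in NIH3T3 cells; actives raise luminescence as potentiators of the MG132 stress response.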 Format: functional. For orientation: In a reporter assay the amount or activity of a reporter protein is the signal.

Chain of Beta-galactosidase (Q8VNN2 whole entry): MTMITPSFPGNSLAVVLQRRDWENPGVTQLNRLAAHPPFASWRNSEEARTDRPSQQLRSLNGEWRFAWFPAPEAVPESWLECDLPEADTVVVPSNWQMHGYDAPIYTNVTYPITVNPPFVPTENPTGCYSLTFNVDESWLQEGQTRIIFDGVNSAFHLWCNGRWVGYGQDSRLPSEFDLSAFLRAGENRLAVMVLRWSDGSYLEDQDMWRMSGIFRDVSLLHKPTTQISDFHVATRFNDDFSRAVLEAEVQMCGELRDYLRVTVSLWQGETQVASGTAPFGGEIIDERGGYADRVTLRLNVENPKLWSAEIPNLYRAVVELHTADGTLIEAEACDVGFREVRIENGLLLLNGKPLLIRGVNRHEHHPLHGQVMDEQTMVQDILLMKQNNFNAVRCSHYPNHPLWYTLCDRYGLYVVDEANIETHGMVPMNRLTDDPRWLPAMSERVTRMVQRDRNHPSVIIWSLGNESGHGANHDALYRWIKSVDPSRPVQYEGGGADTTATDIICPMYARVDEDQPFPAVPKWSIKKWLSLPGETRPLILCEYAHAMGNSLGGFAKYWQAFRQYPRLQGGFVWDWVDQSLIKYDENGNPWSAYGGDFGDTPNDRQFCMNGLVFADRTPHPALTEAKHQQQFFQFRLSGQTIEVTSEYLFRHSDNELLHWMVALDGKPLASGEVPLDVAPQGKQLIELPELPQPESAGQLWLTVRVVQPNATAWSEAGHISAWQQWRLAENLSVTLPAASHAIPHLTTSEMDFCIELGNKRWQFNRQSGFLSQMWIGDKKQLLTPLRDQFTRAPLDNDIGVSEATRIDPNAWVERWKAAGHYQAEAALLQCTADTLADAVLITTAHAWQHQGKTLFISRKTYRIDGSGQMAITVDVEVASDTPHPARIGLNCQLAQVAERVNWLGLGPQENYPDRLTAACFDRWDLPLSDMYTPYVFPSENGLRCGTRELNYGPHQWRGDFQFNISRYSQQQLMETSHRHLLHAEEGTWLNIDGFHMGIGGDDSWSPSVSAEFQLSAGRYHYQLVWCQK
Chain of Large T antigen (P03070 whole entry): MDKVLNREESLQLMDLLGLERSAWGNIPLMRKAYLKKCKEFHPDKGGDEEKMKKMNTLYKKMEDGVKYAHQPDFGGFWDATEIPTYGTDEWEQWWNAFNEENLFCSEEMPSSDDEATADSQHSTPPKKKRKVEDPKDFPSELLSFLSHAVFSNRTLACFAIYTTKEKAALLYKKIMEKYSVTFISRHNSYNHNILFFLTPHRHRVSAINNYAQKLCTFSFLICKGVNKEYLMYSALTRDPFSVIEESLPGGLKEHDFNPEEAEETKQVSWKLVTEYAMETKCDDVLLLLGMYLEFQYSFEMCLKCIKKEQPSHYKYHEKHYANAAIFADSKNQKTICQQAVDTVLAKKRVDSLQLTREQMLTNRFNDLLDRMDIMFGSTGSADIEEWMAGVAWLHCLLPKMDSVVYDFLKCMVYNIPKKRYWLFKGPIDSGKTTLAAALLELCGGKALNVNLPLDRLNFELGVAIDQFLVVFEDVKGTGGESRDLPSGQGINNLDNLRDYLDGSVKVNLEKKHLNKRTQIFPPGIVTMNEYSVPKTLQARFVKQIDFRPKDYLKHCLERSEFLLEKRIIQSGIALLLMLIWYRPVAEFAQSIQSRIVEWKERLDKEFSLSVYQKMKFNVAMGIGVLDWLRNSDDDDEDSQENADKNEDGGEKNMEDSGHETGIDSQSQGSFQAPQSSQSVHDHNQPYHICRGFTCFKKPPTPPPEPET
Chain of Beta Lactamase (Q932Y6 whole entry): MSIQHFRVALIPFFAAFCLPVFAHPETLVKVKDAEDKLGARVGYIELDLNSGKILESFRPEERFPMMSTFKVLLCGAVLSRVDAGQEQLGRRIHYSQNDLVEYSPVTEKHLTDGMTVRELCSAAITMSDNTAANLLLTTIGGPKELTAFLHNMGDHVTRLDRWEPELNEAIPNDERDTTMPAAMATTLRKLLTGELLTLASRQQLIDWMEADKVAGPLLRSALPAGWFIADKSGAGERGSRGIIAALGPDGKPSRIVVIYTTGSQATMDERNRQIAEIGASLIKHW

`CCn1nc(C)cc1-c1nnc(Sc2ncc([N+](=O)[O-])s2)n1C`: the EC50 on Streptokinase A is > 150 µM (not active); at Beta-galactosidase, > 40 µM (inactive); in the assay with BJ [2], 3.46 µM (inconclusive); in the assay with Streptococcus it was 12.4 µM (active); in [3] it was 0.759 µM (active); in assay [4], 3.07 µM (active). The EC50 in assay [5] is 5.37 µM (active); in the assay with BJ [6], 7.27 µM (active); in the assay with BJ [8], 2.09 µM (active); in assay [10], 7.07 µM (active); in [12], 2.9 µM (inconclusive). Further, the IC50 in assay [1] was 8.13 µM (active); on Large T antigen, 17.6 µM (active); in [7] it was 3.76 µM (active); in [9], 0.802 µM (active); at Beta Lactamase, 46 µM (inactive); in [11], 5.36 µM (active). The IC50 in the assay with CHO was 1.08 µM (active).
